Results published in article PMC13205134, “Design, synthesis, and biological properties exhibited by 1,2,3-triazole based Grp94-selective inhibitors” (European journal of medicinal chemistry, 2025).
Where “and” joins values, the source holds several entries; their conditions need not be identical. Equal values may be shown once. Entries after “also recorded” stand apart in the source; their conditions may differ.

Columns and labels:
Grp94 = assay: Competitive binding fluorescence polarization (FP) assay, Grp94; conditions: for Polarization Read 1 / Polarization Read 2 / Polarization Read 3: replicate wells, protein not given
Experimental: The Fluorescence Polarization Assay (FP) was performed in 96-well flat-bottom plates (Santa Cruz Biotechnology) with a final volume of 100 μL per well. […] Each well contained 10 nM of Hsp90α or Grp94 (Enzo Biochem Inc.) and 6 nM of FITC-GDA (fluorescent tracer, stock in DMSO). Compounds were tested in triplicate at final concentrations of 100 μM, 10 μM, 1 μM, 0.1 μM and 0.01 μM with each final concentration containing 1 % DMSO. Each plate included control wells containing: (i) buffer only (background polarization), (ii) protein plus tracer (maximum polarization control), and (iii) tracer only (minimum polarization control). Plates were incubated on a rocker at 4 °C for 24 h.

Hsp90α = Hsp90α (Homo sapiens, UniProt P07900); assay: Competitive binding fluorescence polarization (FP) assay, Hsp90α; conditions: FITC-GDA tracer, mean of triplicates ± SD, read-out: Apparent Kd Hsp90α
Experimental: The Fluorescence Polarization Assay (FP) was performed in 96-well flat-bottom plates (Santa Cruz Biotechnology) with a final volume of 100 μL per well. The assay buffer consisted of 20 mM HEPES, 50 mM KCl, 10.5 mM MgCl2, 20 mM Na2MoO4, 0.01 % NP-40 detergent (NP-40), and pH 7.3 with fresh 2 mM dithiothreitol (DTT) and 0.1 mg/mL bovine γ-globulin (BGG). Each well contained 10 nM of Hsp90α or Grp94 (Enzo Biochem Inc.) and 6 nM of FITC-GDA (fluorescent tracer, stock in DMSO). Compounds were tested in triplicate at final concentrations of 100 μM, 10 μM, 1 μM, 0.1 μM and 0.01 μM with each final concentration containing 1 % DMSO. Each plate included control wells containing: (i) buffer only (background polarization), (ii) protein plus tracer (maximum polarization control), and (iii) tracer only (minimum polarization control). Plates were incubated on a rocker at 4 °C for 24 h. Fluorescence polarization (mP units) was measured at 37 °C using excitation and emission wavelengths of 485 and 528 nm, respectively. Apparent Kd values were determined via calculations from the polarization data obtained at which the tracer was displaced by 50 % by the compounds of interest.
[I50] = concentration of free inhibitor at 50% inhibition, [L50] = concentration of free fluorescence labeled ligand molecule at 50% inhibition, [P0] = concentration of free protein at 0% inhibition, K = dissociation constant of the protein−ligand complex.^4

integrin α2 = assay: Western blot of integrin α2 in MDA-MB-231 cells; assay type: cell-based; conditions: 5 μM, 24 h
Experimental: (§1) MDA-MB-231 cells were grown in a water jacketed incubator at 37 °C with 5 % CO2. Cells were cultured in DMEM (Corning) media supplemented with 10 % heat-inactivated fetal bovine serum (FBS, Gibco, 10438-026) and 1 % Penicillin-Streptomycin (VWR, K952-100 mL). Cells were seeded in clear, flat bottom 6-well plates with each well containing 500,000 cells and grown to 80 % confluency. The medium was replaced with fresh DMEM that contains compounds of interest at the indicated concentrations or vehicle control, and cells were incubated for 24 h. Following treatment, MDA-MB-231 cells were then lysed in RIPA buffer supplemented with protease and phosphatase inhibitors. Protein concentration in lysates were determined by BCA assay (Thermo). Equal amounts of protein were separated by SDS-PAGE on 10 % polyacrylamide gels and […] onto nitrocellulose membranes. Transfer efficiency and total protein loading were confirmed by Ponceau staining. Membranes were blocked with 6 % nonfat dry milk and probed with primary antibodies against GAPDH (Cell Signaling, 14C10), Hsp70 (Cell Signaling, C92F3A), Akt, and Integrin α2 (Cell Signaling, D8V7H) each diluted 1:1000. Secondary antibodies were also used at 1:1000 (Southern Biotech), immunoblots were developed using ECL substrate (Amersham, 45-000-999) and visualized on a ChemiDoc Imaging System (BioRad).

Akt = assay: Western blot of Akt in MDA-MB-231 cells; assay type: cell-based; conditions: 24 h
Experimental: as §1

Hsp70 = assay: Western blot of Hsp70 in MDA-MB-231 cells; assay type: cell-based; conditions: 24 h
Experimental: as §1

Y437H myocilin = assay: Cellular assay for mutant myocilin in dox-inducible trabecular meshwork (TM-1) cells; assay type: cell-based, human
Experimental: (§2) Immortalized human trabecular meshwork (TM-1) cells stably transduced with WT or Y437H myocilin (50 MOI) were grown in low-glucose (1 g/L) Dulbecco’s modified Eagle medium with glutamine (DMEM, Gibco) supplemented with 10 % FBS (Hyclone), 1–2 % PS (Gibco) at 37 °C, and 200 μg/mL hygromycin (Corning), TM-1 cells were seeded in 6 well plates at equivalent cell counts/replicate. The following day, myocilin expression was induced by treating the cells with 2 μg/mL doxycycline (dox, Thermo-Scientific) in serum-free media. After 48 h, media was replaced with serum-free media containing 2 μg/mL dox to induce myocilin expression and 47 at the designated concentration for an additional 24 h.
Cells were lysed using lysis buffer (100 mM Tris-HCl pH 7.4, 3 mM EGTA, 5 mM MgCl2, 0.5 % Triton X 100) supplemented with 0.6 mM phenylmethylsulfonyl fluoride, and a 1:100 v/v protease inhibitor cocktail containing complete EDTA-free protease inhibitor (Roche) and 1 % (v/v) phosphatase inhibitor cocktails II and III (Sigma-Aldrich). Cells lysed by rocking in lysis buffer for ~2 h at 4 °C. Detergent-soluble and detergent insoluble fractions were separated by centrifugation. Protein concentration of the detergent-soluble fractions was determined by BCA assay (Pierce).
The detergent-soluble samples were prepared in equal protein concentration in 5X Laemmli buffer containing 5–10 % (v/v) β-mercaptoethanol. The samples were heated at 95 °C for 5 min and loaded on 12 % Tris-glycine gels. The gels were then transferred to methanol-activated PVDF membranes using the Trans-blot Turbo transfer system (Bio-Rad). […] Quantification of protein bands on Western blots was performed using ImageLab (Bio-Rad). Measurements of band density were normalized to actin loading control within each experiment, and the statistical significance was determined with one-way ANOVA with GraphPad Prism.

wild-type myocilin = assay: Cellular assay for wild-type myocilin in dox-inducible trabecular meshwork (TM-1) cells; assay type: cell-based, human; conditions: higher dose (30 μM), 24 h, Western blot
Experimental: as §2
Cells were lysed using lysis buffer (100 mM Tris-HCl pH 7.4, 3 mM EGTA, 5 mM MgCl2, 0.5 % Triton X 100) supplemented with 0.6 mM phenylmethylsulfonyl fluoride, and a 1:100 v/v protease inhibitor cocktail containing complete EDTA-free protease inhibitor (Roche) and 1 % (v/v) phosphatase inhibitor cocktails II and III (Sigma-Aldrich). Cells lysed by rocking in lysis buffer for ~2 h at 4 °C. […] Protein concentration of the detergent-soluble fractions was determined by BCA assay (Pierce).
The detergent-soluble samples were prepared in equal protein concentration in 5X Laemmli buffer containing 5–10 % (v/v) β-mercaptoethanol. […] Quantification of protein bands on Western blots was performed using ImageLab (Bio-Rad). […]

CCCc1ccccc1Cc1cnnn1CCc1c(Cl)c(O)cc(O)c1C(=O)OC [Compound 47, methyl 3-chloro-4,6-dihydroxy-2-(2-(5-(2-propylbenzyl)-1H-1,2,3-triazol-1-yl)ethyl)benzoate]
Polarization Read 1 (Grp94; 0.01 µM): 298 and 289 and 285
Polarization Read 2 (Grp94; 0.01 µM): 278 and 288 and 270
Polarization Read 3 (Grp94; 0.01 µM): 275 and 284 and 279
Polarization Read 1 (Grp94; 0.1 µM): 247 and 250 and 234
Polarization Read 2 (Grp94; 0.1 µM): 234 and 231 and 237
Polarization Read 3 (Grp94; 0.1 µM): 220 (2×) and 210
Polarization Read 1 (Grp94; 1 µM): 189 and 179 and 182
Polarization Read 2 (Grp94; 1 µM): 178 and 177 and 180
Polarization Read 3 (Grp94; 1 µM): 185 (2×) and 186
Polarization Read 1 (Grp94; 10 µM): 170 and 191 and 174
Polarization Read 2 (Grp94; 10 µM): 172 and 178 and 176
Polarization Read 3 (Grp94; 10 µM): 169 and 185 and 177
improvement in affinity compared to BnIm (Grp94; Grp94 affinity, relative to first generation BnIm): 15 fold
improvement in affinity compared to BnPh (Grp94; Grp94 affinity, relative to second generation BnPh): 8 fold
increase in affinity on extension of ethyl to propyl group (Grp94; Grp94 affinity, relative to the 2-ethyl analog): 10 fold
Fold selective for Grp94 (Grp94; selectivity over Hsp90α, n.s. = non-selective): 121 fold
Kd (Hsp90α): 9.17 ± 0.86 µM
levels of Integrin α2 (integrin α2): induced the degradation of integrin α2; also recorded: reduced the levels of Integrin α2
effect on Akt (cytosolic Hsp90 client protein) (Akt): did not affect Akt
Hsp70 expression (Hsp70): does not induce Hsp70 expression
Y437H-mutant myocilin levels (Y437H myocilin; 3 μM, 24 h, TM-1 cells, Western blot): statistically significant reduction
reduction of levels of intracellular myocilin (Y437H myocilin; 30 μM, 24 h, TM-1 cells Y437H myocilin, Western blot): ≥ 50%
intracellular accumulation of mutant myocilin (Y437H myocilin; human trabecular meshwork cells, concentration not given): reduced the intracellular accumulation of mutant myocilin
wild-type myocilin expression (wild-type myocilin): statistically significant decrease
